Reference: patent US20240327364A1, “THERAPEUTIC TARGETING OF GPR68 TO INDUCE FERROPTOSIS” (University Of Maryland, Baltimore, priority 2023, published 2024)

What was measured:
CDC2L2 = target: T1, CDC2L2 (Homo sapiens, UniProt Q9UQ88); experiment: KinomeScan; type: binding; conditions: read-out: % Control
T1 construct: purchased DiscoveRx (KinomeScan service)

EGFR(E746-A750del) = target: T2, EGFR(E746-A750del) (Homo sapiens, UniProt P00533, DEL746-750); experiment: KinomeScan; type: binding; conditions: read-out: % Control
T2 construct: purchased DiscoveRx (Fremont, CA), KinomeScan service

EGFR(L861Q) = target: T3, EGFR(L861Q) (Homo sapiens, UniProt P00533, L861Q); experiment: KinomeScan; type: binding; conditions: read-out: % Control
T3 construct: purchased DiscoveRx (Fremont, CA), KinomeScan service
T3 sequence (P00533 25-1210 L861Q): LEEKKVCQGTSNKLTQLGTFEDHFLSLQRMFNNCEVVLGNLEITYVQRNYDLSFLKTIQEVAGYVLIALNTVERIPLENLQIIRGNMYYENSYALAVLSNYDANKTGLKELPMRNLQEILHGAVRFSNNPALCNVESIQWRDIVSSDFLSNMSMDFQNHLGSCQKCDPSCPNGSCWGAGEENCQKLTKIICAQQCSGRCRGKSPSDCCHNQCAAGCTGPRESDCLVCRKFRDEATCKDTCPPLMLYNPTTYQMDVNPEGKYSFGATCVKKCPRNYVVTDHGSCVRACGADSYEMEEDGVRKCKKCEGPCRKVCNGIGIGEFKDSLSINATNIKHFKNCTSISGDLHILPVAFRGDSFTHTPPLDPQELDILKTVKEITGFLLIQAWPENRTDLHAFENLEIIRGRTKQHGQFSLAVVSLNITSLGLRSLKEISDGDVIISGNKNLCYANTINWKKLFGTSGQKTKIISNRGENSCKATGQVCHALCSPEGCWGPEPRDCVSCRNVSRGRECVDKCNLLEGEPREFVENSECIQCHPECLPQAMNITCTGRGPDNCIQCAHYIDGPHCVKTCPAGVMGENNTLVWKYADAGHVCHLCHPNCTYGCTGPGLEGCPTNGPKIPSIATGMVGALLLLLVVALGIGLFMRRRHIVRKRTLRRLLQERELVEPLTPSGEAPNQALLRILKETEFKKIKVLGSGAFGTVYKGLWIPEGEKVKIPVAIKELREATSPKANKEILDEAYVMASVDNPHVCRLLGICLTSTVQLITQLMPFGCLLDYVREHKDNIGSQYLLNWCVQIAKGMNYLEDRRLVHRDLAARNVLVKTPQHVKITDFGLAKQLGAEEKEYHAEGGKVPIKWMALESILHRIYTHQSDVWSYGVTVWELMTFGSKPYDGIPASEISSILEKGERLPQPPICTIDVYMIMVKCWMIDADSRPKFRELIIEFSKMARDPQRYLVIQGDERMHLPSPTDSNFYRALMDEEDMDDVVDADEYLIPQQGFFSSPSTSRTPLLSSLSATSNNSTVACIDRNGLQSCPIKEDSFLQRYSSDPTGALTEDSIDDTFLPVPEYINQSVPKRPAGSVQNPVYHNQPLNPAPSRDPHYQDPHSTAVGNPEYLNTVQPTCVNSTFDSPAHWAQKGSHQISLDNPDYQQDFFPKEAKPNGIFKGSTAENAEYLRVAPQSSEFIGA

EIF2AK1 = target: T4, EIF2AK1 (Homo sapiens, UniProt Q9BQI3); experiment: KinomeScan; type: binding; conditions: read-out: % Control
T4 construct: purchased DiscoveRx (Fremont, CA)
T4 sequence (Q9BQI3 whole entry): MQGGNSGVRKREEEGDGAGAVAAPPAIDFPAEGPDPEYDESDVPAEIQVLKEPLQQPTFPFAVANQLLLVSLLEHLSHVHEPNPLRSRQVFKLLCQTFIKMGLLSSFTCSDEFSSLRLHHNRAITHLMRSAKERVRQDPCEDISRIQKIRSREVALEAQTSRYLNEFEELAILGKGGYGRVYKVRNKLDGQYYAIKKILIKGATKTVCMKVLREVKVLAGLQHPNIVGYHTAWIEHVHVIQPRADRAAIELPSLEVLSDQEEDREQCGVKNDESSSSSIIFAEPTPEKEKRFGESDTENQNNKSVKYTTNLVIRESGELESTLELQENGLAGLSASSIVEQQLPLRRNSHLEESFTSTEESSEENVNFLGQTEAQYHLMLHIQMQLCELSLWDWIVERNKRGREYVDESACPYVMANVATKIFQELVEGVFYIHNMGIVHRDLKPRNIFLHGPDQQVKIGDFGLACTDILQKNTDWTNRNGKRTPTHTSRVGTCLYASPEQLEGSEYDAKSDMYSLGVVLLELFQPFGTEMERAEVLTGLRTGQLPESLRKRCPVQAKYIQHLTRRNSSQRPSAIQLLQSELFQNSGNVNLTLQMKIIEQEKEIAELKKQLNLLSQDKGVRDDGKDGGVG

FYN = target: T5, FYN (Homo sapiens, UniProt P06241); experiment: KinomeScan; type: binding; conditions: read-out: % Control
T5 construct: purchased DiscoveRx (Fremont, CA)
T5 sequence (P06241 whole entry): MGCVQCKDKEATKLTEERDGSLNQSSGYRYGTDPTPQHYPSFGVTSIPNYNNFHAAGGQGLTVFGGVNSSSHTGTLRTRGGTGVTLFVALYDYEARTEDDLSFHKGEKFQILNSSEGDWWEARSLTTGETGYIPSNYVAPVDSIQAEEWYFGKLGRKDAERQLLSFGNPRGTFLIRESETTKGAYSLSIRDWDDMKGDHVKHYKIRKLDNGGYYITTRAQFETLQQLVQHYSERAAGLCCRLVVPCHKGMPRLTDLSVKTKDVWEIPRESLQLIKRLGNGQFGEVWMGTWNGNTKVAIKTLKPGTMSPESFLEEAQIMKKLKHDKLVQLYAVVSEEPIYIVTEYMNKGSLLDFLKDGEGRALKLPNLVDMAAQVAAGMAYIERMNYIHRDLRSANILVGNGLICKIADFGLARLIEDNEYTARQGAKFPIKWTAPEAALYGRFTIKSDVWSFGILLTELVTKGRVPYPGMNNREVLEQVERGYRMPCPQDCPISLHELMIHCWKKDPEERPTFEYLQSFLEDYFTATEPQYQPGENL

HCK = target: T6, HCK (Homo sapiens, UniProt P08631); experiment: KinomeScan; type: binding; conditions: read-out: % Control
T6 construct: purchased DiscoveRx (Fremont, CA)

LIMK1 = target: T7, LIMK1 (Homo sapiens, UniProt P53667); experiment: KinomeScan; type: binding; conditions: read-out: % Control
T7 construct: purchased DiscoveRx
T7 sequence (P53667 whole entry): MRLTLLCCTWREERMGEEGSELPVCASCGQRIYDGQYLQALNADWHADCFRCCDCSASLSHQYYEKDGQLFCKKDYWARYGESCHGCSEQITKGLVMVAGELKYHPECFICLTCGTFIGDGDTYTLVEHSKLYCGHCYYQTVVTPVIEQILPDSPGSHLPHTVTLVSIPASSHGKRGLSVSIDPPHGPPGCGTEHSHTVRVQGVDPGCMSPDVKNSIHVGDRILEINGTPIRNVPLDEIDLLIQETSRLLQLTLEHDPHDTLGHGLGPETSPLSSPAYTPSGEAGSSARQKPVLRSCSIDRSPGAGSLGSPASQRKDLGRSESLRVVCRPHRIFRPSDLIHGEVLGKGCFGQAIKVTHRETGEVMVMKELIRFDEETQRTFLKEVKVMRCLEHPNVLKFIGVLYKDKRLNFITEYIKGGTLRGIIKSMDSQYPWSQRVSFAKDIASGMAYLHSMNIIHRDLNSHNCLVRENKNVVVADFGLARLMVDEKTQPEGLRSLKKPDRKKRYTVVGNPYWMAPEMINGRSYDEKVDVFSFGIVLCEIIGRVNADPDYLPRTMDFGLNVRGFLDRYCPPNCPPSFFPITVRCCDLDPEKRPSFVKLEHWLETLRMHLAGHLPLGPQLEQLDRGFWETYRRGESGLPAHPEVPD

MKNK1 = target: T8, MKNK1 (Homo sapiens, UniProt Q9BUB5); experiment: KinomeScan; type: binding; conditions: read-out: % Control
T8 construct: purchased DiscoveRx

PFCDPK1(P. falciparum) = target: T9, PFCDPK1(P. falciparum) (Plasmodium falciparum, UniProt P62344); experiment: KinomeScan; type: binding; conditions: read-out: % Control
T9 construct: purchased DiscoveRx (Fremont, CA)

PYK2 = target: T10, PYK2 (Homo sapiens, UniProt Q14289); experiment: KinomeScan; type: binding; conditions: read-out: % Control
T10 construct: purchased DiscoveRx (Fremont, CA)

RIPK2 = target: T11, RIPK2 (Homo sapiens, UniProt O43353); experiment: KinomeScan; type: binding; conditions: read-out: % Control
T11 construct: purchased DiscoveRx (Fremont, CA)

STK16 = target: T12, STK16 (Homo sapiens, UniProt O75716); experiment: KinomeScan; type: binding; conditions: read-out: % Control
T12 construct: purchased DiscoveRx (Fremont, CA)
T12 sequence (O75716 whole entry): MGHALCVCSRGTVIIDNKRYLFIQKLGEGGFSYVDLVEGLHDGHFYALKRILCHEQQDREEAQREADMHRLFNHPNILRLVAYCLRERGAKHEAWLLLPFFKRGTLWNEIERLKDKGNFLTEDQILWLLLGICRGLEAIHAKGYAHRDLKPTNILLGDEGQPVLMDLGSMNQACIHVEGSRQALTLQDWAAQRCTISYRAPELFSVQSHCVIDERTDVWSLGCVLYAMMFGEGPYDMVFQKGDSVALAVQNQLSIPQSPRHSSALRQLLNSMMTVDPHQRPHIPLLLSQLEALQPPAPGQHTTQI

ETB = target: T13, ETB (Homo sapiens, UniProt P24530); experiment: GPCR Profiler; type: cell-based
T13 construct: host or cells: Chem-1 cells expressing Gα15
T13 sequence (P24530 27-442): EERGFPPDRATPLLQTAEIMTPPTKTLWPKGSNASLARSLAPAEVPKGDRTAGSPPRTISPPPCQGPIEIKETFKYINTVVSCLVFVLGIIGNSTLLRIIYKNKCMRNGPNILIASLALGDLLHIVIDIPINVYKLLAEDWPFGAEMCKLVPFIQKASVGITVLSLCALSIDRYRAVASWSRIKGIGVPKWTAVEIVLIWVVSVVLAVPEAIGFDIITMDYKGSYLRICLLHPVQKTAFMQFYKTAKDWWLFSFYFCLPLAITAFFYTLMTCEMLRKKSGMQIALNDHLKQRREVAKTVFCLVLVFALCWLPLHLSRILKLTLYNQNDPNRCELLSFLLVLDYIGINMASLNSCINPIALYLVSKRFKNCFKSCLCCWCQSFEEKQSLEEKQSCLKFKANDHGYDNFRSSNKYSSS

GPR39 = target: T14, GPR39 (Homo sapiens, UniProt O43194); experiment: GPCR Profiler; type: cell-based
T14 construct: host or cells: Chem-1 cells expressing Gα15
T14 sequence (O43194 whole entry): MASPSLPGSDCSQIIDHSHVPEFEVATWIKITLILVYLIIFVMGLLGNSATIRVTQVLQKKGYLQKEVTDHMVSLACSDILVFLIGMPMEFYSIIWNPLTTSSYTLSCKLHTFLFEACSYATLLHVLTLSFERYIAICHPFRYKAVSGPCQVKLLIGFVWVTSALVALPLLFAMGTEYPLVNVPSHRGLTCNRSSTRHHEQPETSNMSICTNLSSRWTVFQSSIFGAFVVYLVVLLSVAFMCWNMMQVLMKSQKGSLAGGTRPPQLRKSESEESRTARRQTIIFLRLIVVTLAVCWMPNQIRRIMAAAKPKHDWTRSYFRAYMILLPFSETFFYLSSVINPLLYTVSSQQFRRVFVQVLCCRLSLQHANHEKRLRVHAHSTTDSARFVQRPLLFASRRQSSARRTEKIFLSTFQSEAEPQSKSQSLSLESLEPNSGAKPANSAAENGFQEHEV

WM-115 = experiment: Cell Titer-Glo viability, Melanoma; type: cell-based
Protocol: OGM2 kills wide variety of cancer cell types. Cell sensitivity can be classified in to Very Sensitive (LC50<2 μM), Sensitive (LC50=2 to 10 μM), Mildly Sensitive (LC50>10 μM), and Refractory (no killing at 10 μM). The listed established cell were incubated with OGM2 at 2 μM or 10 μM for 72 hours under standard cell culture conditions, and relative cell number was assessed using Cell Titer-Glo Luminescent Cell Viability Assay (Promega™) following the manufacturer's instructions. Luminescence was determined using a Cytation 5 reader and Gen5 software package (BioTek™).
Cancer cells, which are very sensitive to killing by OGM2 (LCs <2 μM), with reported mRNA expression of GPR68 and the related proton sensing receptor GPR4. LC50's (concentrations causing 50% lethality) were determined using CellTiter-Glo (Promega™, G7570). Cells were plated in 12-well plates (CELLTREAT Scientific Products, 229112) in 1 ml of DMEM with high glucose, GlutaMAX, HEPES, or RPMI 1640 with Penicillin-Streptomycin (ThermoFisher™, 10564029, 11875119 and 15140122) and 10% FBS. Cells were incubated overnight at 37° C. in 5% CO2. Then 1 mL of fresh media was added with DMSO, OGM, or positive control (Erastin; APExBIO Technology, LLC, B1524) and cells incubated for 3 days. On the third day, all media was removed, cells were rinsed with 1×PBS, PBS was removed, and 200 μL of 1× Passive Lysis Buffer (Promega™, E1941) was added to each well. […]. Subsequently, 20 μL of lysate was added to 100 μL CellTiter-Glo™ reagent on a LUMITRAC 200 plate (Greiner™ bio-one, 82050-726). Plates were briefly spun down and read on a GloMax-Multi Detection System (Promega™).
The cells listed in the tables above were incubated with OGM2 at 2 μM or 10 μM for 72 hours under standard cell culture conditions, and relative cell number was assessed using Cell Titer-Glo Luminescent Cell Viability Assay (Promega™) following the manufacturer's instructions. Luminescence was determined using a Cytation 5 reader and Gen5 software package (BioTek™). RNA expression of GPR68 and GPR4 in the corresponding cancer cell lines are listed, according to the publicly available The Human Protein Atlas version 22.0 and Ensembl version 103.38 (see proteinatlas.org). The consensus normalized expression value (“nTPM”=normalize transcript per million) was calculated as the maximum nTPM value for each gene in the two data sources.

zebrafish embryos = experiment: Acridine orange stain of zebrafish embryos (cell death); conditions: in vivo
U87 [1] = experiment: GSH-Glo Glutathione Assay; type: cell-based, human; conditions: 2 μM OGM2 for 24 hours
Protocol: GSH-Glo™ Glutathione Assay (Promega™) was performed according to manufacturer protocol. Briefly, U87 cells were plated at 10,000 cells per well in a 96-well plate. The following day cells were treated with DMSO control vehicle or 2 μM OGM2 for 24 hours. Medium was removed from wells and 100 μl GSH-Glo™ Reagent was added to each well and incubated on a plate shaker for 30 minutes. One hundred microliters Luciferin Detection Reagent was added to each well and mixed briefly. After 15 minutes incubation, luminescence was detected on Promega™ GloMax luminometer.

U87 [2] = experiment: Clonogenicity (crystal violet); type: cell-based, human; conditions: 12 days
Protocol: U87 cells were plated at 400 cells per well in a 6-well plate and on the next day were treated with increasing concentrations of OGM2 for 12 days. The doses were 0 uM (DMSO control) 0.1 μM 0.5 uM, 1 uM, 1.5 uM and 2 uM, as labelled. The plate was fixed with formalin and stained with crystal violet.

T1 sequence (Q9UQ88 whole entry): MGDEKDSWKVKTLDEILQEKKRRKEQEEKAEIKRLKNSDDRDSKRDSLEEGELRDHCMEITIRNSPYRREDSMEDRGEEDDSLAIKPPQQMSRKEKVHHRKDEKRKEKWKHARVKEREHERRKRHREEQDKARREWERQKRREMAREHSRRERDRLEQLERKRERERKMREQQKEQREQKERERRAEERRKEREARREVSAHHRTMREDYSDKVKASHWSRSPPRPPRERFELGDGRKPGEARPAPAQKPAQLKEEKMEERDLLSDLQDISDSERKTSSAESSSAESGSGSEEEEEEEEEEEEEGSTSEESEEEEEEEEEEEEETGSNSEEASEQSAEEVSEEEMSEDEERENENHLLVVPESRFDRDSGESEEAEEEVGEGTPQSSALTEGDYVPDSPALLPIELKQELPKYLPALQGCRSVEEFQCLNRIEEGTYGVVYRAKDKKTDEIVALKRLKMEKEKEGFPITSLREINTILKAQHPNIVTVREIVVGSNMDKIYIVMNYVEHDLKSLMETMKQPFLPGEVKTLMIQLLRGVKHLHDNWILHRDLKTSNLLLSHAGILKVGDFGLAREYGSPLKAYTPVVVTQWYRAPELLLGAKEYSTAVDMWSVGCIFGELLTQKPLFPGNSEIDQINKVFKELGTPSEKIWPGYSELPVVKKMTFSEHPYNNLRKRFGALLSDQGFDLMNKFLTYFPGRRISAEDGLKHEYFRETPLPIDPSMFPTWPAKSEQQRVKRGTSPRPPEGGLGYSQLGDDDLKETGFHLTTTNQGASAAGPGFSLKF

CCc1ccc2c(c1)C1(NN=C(c3cccc4ccccc34)S1)C(=O)N2 (centres unmarked) [OGM1, 5-ethyl-5′-naphthalen-1-ylspiro[1H-indole-3,2′-3H-1,3,4-thiadiazole]-2-one]
remaining binding at 10 µM (CDC2L2): 93%
remaining binding at 10 µM (EGFR(E746-A750del)): 100%
remaining binding at 10 µM (EGFR(L861Q)): 100%
remaining binding at 10 µM (EIF2AK1): 100%
remaining binding at 10 µM (FYN): 100%
remaining binding at 10 µM (HCK): 96%
remaining binding at 10 µM (LIMK1): 100%
remaining binding at 10 µM (MKNK1): 90%
remaining binding at 10 µM (PFCDPK1(P. falciparum)): 95%
remaining binding at 10 µM (PYK2): 100%
remaining binding at 10 µM (RIPK2): 100%
remaining binding at 10 µM (STK16): 88%
Antagonism (ETB; 10 uM): −1.6
Agonism (ETB; 12.5 uM): 9.1
Antagonism (GPR39; 10 uM): 5.4
Agonism (GPR39; 12.5 uM): 0

CCc1ccc2c(c1)C1(NN=C(c3ccccc3)S1)C(=O)N2 (centres unmarked) [OGM2]
Class (WM-115): Sensitive (Sensitive (LC50=2 to 10 μM))
% Survival 2 μM OGM (WM-115; 72 hours): 92.9%
% Survival 10 μM OGM (WM-115; 72 hours): 40.7%
CC50 (WM-115; Homo sapiens, WM-115, 72 hours, read-out: LC50 (the source's name)): 2 to 10 µM
excess cell death (zebrafish embryos): did not induce excess cell death in zebrafish larvae
glutathione levels (U87 [1]): dramatically reduced glutathione levels
clonogenicity (U87 [2]): reduces clonogenicity of U87 glioblastoma cells
